From ChEMBL document CHEMBL4325853, “Design, synthesis and antibacterial evaluation of 2,4-disubstituted-6-thiophenyl-pyrimidines” (Eur J Med Chem, 2019) come the findings set out here.

Converted amounts (≈) assume the structure as drawn.

Common to all, as to format: functional
In one test the test system is Bacillus subtilis. The experiment in a line: Antibacterial activity against Bacillus subtilis 168 after 18 hrs by broth microdilution method. The following applies: subsp. subtilis str. 168, 18 h.
In test [1] the test system is Staphylococcus aureus. Put plainly: Antibacterial activity against Staphylococcus aureus ATCC 29213 after 18 hrs by broth microdilution method. As to conditions: ATCC 29213, 18 h.
Test [2] concerns Enterococcus faecium. The experiment in a line: Antibacterial activity against Enterococcus faecium ATCC 49624 after 18 hrs by broth microdilution method. The following applies: ATCC 49624, 18 h.
Test [3] has as its system Enterococcus faecalis. Put plainly: Antibacterial activity against Enterococcus faecalis ATCC 29212 after 18 hrs by broth microdilution method. The following applies: ATCC 29212, 18 h.
Test [4] concerns Staphylococcus epidermidis. Put plainly: Antibacterial activity against Staphylococcus epidermidis ATCC 12228 after 18 hrs by broth microdilution method. The following applies: ATCC 12228, 18 h.
For another test, the system named is Escherichia coli. The experiment in a line: Antibacterial activity against Escherichia coli ATCC 25922 after 18 hrs by broth microdilution method. The following applies: ATCC 25922, 18 h.
Test [5] deals with Staphylococcus aureus. The experiment in a line: Potency index, ratio of berberine MIC to test compound MIC for Staphylococcus aureus ATCC 29213.
Test [6] has as its system Enterococcus faecium. The experiment in a line: Potency index, ratio of berberine MIC to test compound MIC for Enterococcus faecium ATCC 49624.
Test [7] concerns Enterococcus faecalis. Put plainly: Potency index, ratio of berberine MIC to test compound MIC for Enterococcus faecalis ATCC 29212.
The subject of test [8] is Staphylococcus epidermidis. The experiment in a line: Potency index, ratio of berberine MIC to test compound MIC for Staphylococcus epidermidis ATCC 12228.

Regarding `Cc1nc(CCN2CCN(Cc3ccccc3)CC2)cc(-c2cccs2)n1`, the MIC90 (against Bacillus subtilis; in the test on Staphylococcus aureus [1]; against Enterococcus faecium [2]; with Enterococcus faecalis [3]; in test [4]; in the test with Escherichia coli) was above 192 µg/mL each time.
`Cc1nc(CCN2CCCN(Cc3ccc(F)c(F)c3)CC2)cc(-c2cccs2)n1`: the MIC90 was 128 µg/mL (≈ 299 µM) in the test on Bacillus subtilis; 128 µg/mL (≈ 299 µM) against Staphylococcus aureus [1]; 128 µg/mL (≈ 299 µM) in the test with Enterococcus faecium [2]; 128 µg/mL (≈ 299 µM) in the test on Enterococcus faecalis [3]; 128 µg/mL (≈ 299 µM) in [4]; above 192 µg/mL in the test on Escherichia coli.
As for `Cc1nc(CCN2CCCN(Cc3ccccc3F)CC2)cc(-c2cccs2)n1`, the MIC90 with Bacillus subtilis is 192 µg/mL (≈ 468 µM); in the test with Staphylococcus aureus [1] it was 192 µg/mL (≈ 468 µM); with Enterococcus faecium [2] it was above 192 µg/mL; with Enterococcus faecalis [3] it was above 192 µg/mL; in [4], 192 µg/mL (≈ 468 µM); against Escherichia coli it was above 192 µg/mL.
As for `Fc1cccc(CN2CCCN(CCc3cc(-c4cccs4)nc(-c4ccncc4)n3)CC2)c1`, the MIC90 in the test on Bacillus subtilis is 8 µg/mL (≈ 16.9 µM); against Staphylococcus aureus [1] it was 8 µg/mL (≈ 16.9 µM); against Enterococcus faecium [2], 16 µg/mL (≈ 33.8 µM); against Enterococcus faecalis [3], 16 µg/mL (≈ 33.8 µM); in test [4], 8 µg/mL (≈ 16.9 µM); with Escherichia coli, above 128 µg/mL. In addition, the Ratio (with Staphylococcus aureus [5]; in the test with Enterococcus faecium [6]; in the test with Enterococcus faecalis [7]; in test [8]) was 50 - 100 each time.
On to `Cc1nc(CCN2CCCN(Cc3ccccc3)CC2)cc(-c2cccs2)n1`, for which the MIC90 was 192 µg/mL (≈ 489 µM) against Bacillus subtilis; 192 µg/mL (≈ 489 µM) in the test on Staphylococcus aureus [1]; above 192 µg/mL in the test with Enterococcus faecium [2]; above 192 µg/mL against Enterococcus faecalis [3]; 192 µg/mL (≈ 489 µM) in test [4]; above 192 µg/mL in the test on Escherichia coli.
`Cc1nc(CCNCCN2CCCC2)cc(-c2cccs2)n1`: the MIC90 (against Bacillus subtilis; with Staphylococcus aureus [1]; in the test with Enterococcus faecium [2]; with Enterococcus faecalis [3]; in [4]; against Escherichia coli) was above 192 µg/mL throughout.
Take `Cc1nc(CCN2CCNCC2)cc(-c2cccs2)n1`: the MIC90 (against Bacillus subtilis; with Staphylococcus aureus [1]; in the test on Enterococcus faecium [2]; in the test on Enterococcus faecalis [3]; in [4]; in the test on Escherichia coli) was above 192 µg/mL in each case.
For the compound `Cc1nc(CCN2C[C@@H]3C[C@H]2CN3C(=O)OC(C)(C)C)cc(-c2cccs2)n1`, the MIC90 (against Bacillus subtilis; in the test with Staphylococcus aureus [1]; with Enterococcus faecium [2]; with Enterococcus faecalis [3]; in [4]; against Escherichia coli) was above 192 µg/mL in each case.
As to `c1ccc(CN2CCCN(CCc3cc(-c4cccs4)nc(-c4ccncc4)n3)CC2)cc1`, the MIC90 against Bacillus subtilis is 16 µg/mL (≈ 35.1 µM); against Staphylococcus aureus [1], 16 µg/mL (≈ 35.1 µM); against Enterococcus faecium [2] it was 32 µg/mL (≈ 70.2 µM); against Enterococcus faecalis [3] it was 32 µg/mL (≈ 70.2 µM); in test [4], 16 µg/mL (≈ 35.1 µM); in the test with Escherichia coli it was above 128 µg/mL. For the same compound, the Ratio (in the test with Staphylococcus aureus [5]; in the test on Enterococcus faecium [6]; in the test on Enterococcus faecalis [7]; in test [8]) was 50 - 100 in each case.
In the case of `Cc1nc(CCN2CCN(Cc3ccc(F)cc3)CC2)cc(-c2cccs2)n1`, the MIC90 against Bacillus subtilis is 192 µg/mL (≈ 484 µM); in the test on Staphylococcus aureus [1], 192 µg/mL (≈ 484 µM); against Enterococcus faecium [2] it was above 192 µg/mL; with Enterococcus faecalis [3], above 192 µg/mL; in test [4], 192 µg/mL (≈ 484 µM); against Escherichia coli it was above 192 µg/mL.
As to `Cc1nc(CCN2CCCN(Cc3ccc(C(C)(C)C)cc3)CC2)cc(-c2cccs2)n1`, the MIC90 worked out at 64 µg/mL (≈ 143 µM) against Bacillus subtilis; 32 µg/mL (≈ 71.3 µM) in the test on Staphylococcus aureus [1]; 64 µg/mL (≈ 143 µM) in the test with Enterococcus faecium [2]; 64 µg/mL (≈ 143 µM) with Enterococcus faecalis [3]; 32 µg/mL (≈ 71.3 µM) in [4]; 128 µg/mL (≈ 285 µM) in the test on Escherichia coli.
Take `Fc1ccc(CN2CCCN(CCc3cc(-c4cccs4)nc(-c4ccncc4)n3)CC2)cc1`: the MIC90 is 8 µg/mL (≈ 16.9 µM) with Bacillus subtilis; 8 µg/mL (≈ 16.9 µM) against Staphylococcus aureus [1]; 16 µg/mL (≈ 33.8 µM) in the test on Enterococcus faecium [2]; 16 µg/mL (≈ 33.8 µM) with Enterococcus faecalis [3]; 8 µg/mL (≈ 16.9 µM) in [4]; above 128 µg/mL against Escherichia coli. Moreover, the Ratio (in the test with Staphylococcus aureus [5]; in the test on Enterococcus faecium [6]; in the test on Enterococcus faecalis [7]; in test [8]) was 50 - 100 each time.
Consider `Cc1nc(CCNCCN2CCOCC2)cc(-c2cccs2)n1`, for which the MIC90 (against Bacillus subtilis; against Staphylococcus aureus [1]; against Enterococcus faecium [2]; in the test with Enterococcus faecalis [3]; in test [4]; in the test on Escherichia coli) was above 192 µg/mL throughout.
For the compound `Cc1nc(CCN2CCN(c3ccc(C(F)(F)F)cc3)CC2)cc(-c2cccs2)n1`, the MIC90 (in the test on Bacillus subtilis; in the test on Staphylococcus aureus [1]; against Enterococcus faecium [2]; in the test with Enterococcus faecalis [3]; in test [4]; against Escherichia coli) was above 192 µg/mL in each case.
As to `Cc1nc(CCN2C[C@@H]3C[C@H]2CN3)cc(-c2cccs2)n1`, the MIC90 (against Bacillus subtilis; against Staphylococcus aureus [1]; in the test with Enterococcus faecium [2]; in the test with Enterococcus faecalis [3]; in test [4]; against Escherichia coli) was above 192 µg/mL in each case.
In the case of `Cc1ccc(CN2CCN(CCc3cc(-c4cccs4)nc(C)n3)CC2)cc1`, the MIC90 in the test with Bacillus subtilis is 192 µg/mL (≈ 489 µM); against Staphylococcus aureus [1], 192 µg/mL (≈ 489 µM); against Enterococcus faecium [2], above 192 µg/mL; against Enterococcus faecalis [3], above 192 µg/mL; in test [4], 192 µg/mL (≈ 489 µM); against Escherichia coli, above 192 µg/mL.
Turning to `Cc1nc(CCN2CCN(C(=O)OC(C)(C)C)CC2)cc(-c2cccs2)n1`, the MIC90 (in the test on Bacillus subtilis; in the test with Staphylococcus aureus [1]; with Enterococcus faecium [2]; against Enterococcus faecalis [3]; in test [4]; in the test with Escherichia coli) was above 192 µg/mL in each case.
`Cc1nc(CCN2CCCN(Cc3ccc(F)cc3)CC2)cc(-c2cccs2)n1`: the MIC90 was 128 µg/mL (≈ 312 µM) in the test on Bacillus subtilis; 128 µg/mL (≈ 312 µM) against Staphylococcus aureus [1]; 192 µg/mL (≈ 468 µM) against Enterococcus faecium [2]; 192 µg/mL (≈ 468 µM) against Enterococcus faecalis [3]; 128 µg/mL (≈ 312 µM) in test [4]; above 192 µg/mL against Escherichia coli.
With `Cc1nc(CCN(C)CCN(C)Cc2ccccc2)cc(-c2cccs2)n1`, the MIC90 (in the test on Bacillus subtilis; against Staphylococcus aureus [1]; in the test with Enterococcus faecium [2]; against Enterococcus faecalis [3]; in test [4]; with Escherichia coli) was above 192 µg/mL each time.
Turning to `Cc1nc(CCNCCN2CCCCC2)cc(-c2cccs2)n1`, the MIC90 (against Bacillus subtilis; with Staphylococcus aureus [1]; against Enterococcus faecium [2]; in the test on Enterococcus faecalis [3]; in test [4]; against Escherichia coli) was above 192 µg/mL each time.
For the compound `Cc1nc(-c2cccs2)cc([C@H]2CN3CC[C@H]2C[C@@H]3CNC(=O)CCCC(=O)O)n1`, the MIC90 with Bacillus subtilis was 192 µg/mL (≈ 448 µM); in the test with Staphylococcus aureus [1], 192 µg/mL (≈ 448 µM); against Enterococcus faecium [2], above 192 µg/mL; with Enterococcus faecalis [3] it was above 192 µg/mL; in test [4], 192 µg/mL (≈ 448 µM); with Escherichia coli it was 384 µg/mL (≈ 896 µM).
As for `Cc1nc(CCN2CCCN(Cc3cccc(F)c3)CC2)cc(-c2cccs2)n1`, the MIC90 was 128 µg/mL (≈ 312 µM) with Bacillus subtilis; 128 µg/mL (≈ 312 µM) against Staphylococcus aureus [1]; 192 µg/mL (≈ 468 µM) with Enterococcus faecium [2]; 192 µg/mL (≈ 468 µM) with Enterococcus faecalis [3]; 128 µg/mL (≈ 312 µM) in [4]; above 192 µg/mL in the test with Escherichia coli.
